Among the data in article PMC10257758 (Drug development research, 2023) are Ki, viability and general cytotoxic effect values, retold here.

Values joined by “and” are separate entries in the source; they are usually repeats but may differ in a detail not shown here. Identical values can stand only once.

In one series the target is CA I (Homo sapiens, UniProt P00915). The series is described as follows: CA-catalysed CO2 hydration stopped-flow inhibition assay, CA I. Type of series: biochemical. The note with it: mean from 3 assays.
A further series concerns the target CA II (Homo sapiens, UniProt P00918). Put plainly: CA-catalysed CO2 hydration stopped-flow inhibition assay, CA II. The note with it: mean from 3 assays. The series is classed as biochemical.
Another series concerns the target CA IX (Homo sapiens, UniProt Q16790). Put plainly: CA-catalysed CO2 hydration stopped-flow inhibition assay, CA IX. Type of series: biochemical. The note with it: mean from 3 assays.
The target in a further series is CA XII (Homo sapiens, UniProt O43570). The series is described as follows: CA-catalysed CO2 hydration stopped-flow inhibition assay, CA XII. The series is classed as biochemical. The note with it: mean from 3 assays.
Series [1] in a line: MTS cytotoxicity / cell viability assay. The series is classed as cell-based, human. The note with it: human, HEK293 cells.
The next series deals with HEK293 cells. Put plainly: MTS cytotoxicity / cell viability assay. The note with it: low tumorigenic cells (HEK293). The series is classed as cell-based, human.

Sequence of CA XII (O43570 25-354): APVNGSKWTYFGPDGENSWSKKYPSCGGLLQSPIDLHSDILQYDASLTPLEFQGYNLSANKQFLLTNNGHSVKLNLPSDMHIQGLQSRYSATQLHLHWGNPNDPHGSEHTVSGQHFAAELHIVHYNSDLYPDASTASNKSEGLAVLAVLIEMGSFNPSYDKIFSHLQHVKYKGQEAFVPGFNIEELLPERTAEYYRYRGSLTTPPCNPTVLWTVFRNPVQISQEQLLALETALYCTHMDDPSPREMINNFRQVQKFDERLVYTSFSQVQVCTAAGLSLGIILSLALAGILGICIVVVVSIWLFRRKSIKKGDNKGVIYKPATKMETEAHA
Sequence of CA I (P00915 whole entry): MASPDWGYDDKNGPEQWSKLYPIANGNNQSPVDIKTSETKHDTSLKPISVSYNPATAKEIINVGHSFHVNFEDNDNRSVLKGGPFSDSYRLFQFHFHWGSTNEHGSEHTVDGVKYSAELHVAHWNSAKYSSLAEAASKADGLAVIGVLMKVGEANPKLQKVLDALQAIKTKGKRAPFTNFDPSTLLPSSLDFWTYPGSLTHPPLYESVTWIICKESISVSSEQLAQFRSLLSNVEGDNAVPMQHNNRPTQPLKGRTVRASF

On to `NS(=O)(=O)c1ccc(NC(=O)c2cc3cc(Cl)cc(Cl)c3oc2=O)cc1` [9d, 6,8-Dichloro-2-oxo-N-(4-sulfamoylphenyl)-2H-chromene-3-carboxamide], for which the inhibition constant Ki (usually a measure of affinity in units of concentration, obtained from inhibition or displacement) stood at 2320 nM on CA I (cells/sentences stated in nM), 238 nM at CA II (cells/sentences stated in nM), 105 nM on CA IX (cells/sentences stated in nM) and 46.3 nM on CA XII (cells/sentences stated in nM).

On to `CCN(CC)c1ccc2cc(C(=O)OCC(=O)Nc3ccc(S(N)(=O)=O)cc3)c(=O)oc2c1` [compound 22, 2-Oxo-2-((4-sulfamoylphenyl)amino)ethyl-7-(diethylamino)-2-oxo-2H-chromene-3-carboxylate], for which the inhibitory constant (Ki) came out at 74.4 nM at CA I (cells/sentences stated in nM), 23 nM at CA II (cells/sentences stated in nM), 19.6 nM on CA IX (cells/sentences stated in nM) and 65.7 nM on CA XII (cells/sentences stated in nM).

For the molecule `CCOC(=O)c1cc2ccc(OCC(=O)Nc3ccc(S(=O)(=O)NC(C)=O)cc3)cc2oc1=O` [5c, Ethyl 7-(2-((4-(N-acetylsulfamoyl)phenyl)amino)-2-oxoethoxy)-2-oxo-2H-chromene-3-carboxylate], the Ki at CA I (μM unless stated) is over 100000 nM; on CA II (μM unless stated), over 100000 nM; on CA IX (μM unless stated) it was 6100 nM; at CA XII (μM unless stated), 1900 nM.

In the case of `CCOC(=O)c1cc2ccc(OCC(=O)Nc3ccc(S(N)(=O)=O)cc3)cc2oc1=O` [5a, Ethyl 2-oxo-7-(2-oxo-2-((4-sulfamoylphenyl)amino)ethoxy)-2H-chromene-3-carboxylate], the Ki at CA I (cells/sentences stated in nM) came out at 738 nM; at CA XII (cells/sentences stated in nM), 20.3 nM.

`NS(=O)(=O)c1cccc(NC(=O)c2cc3ccccc3oc2=O)c1` [16e, 2-Oxo-N-(3-sulfamoylphenyl)-2H-chromene-3-carboxamide]: the Ki came to 193 nM on CA I (cells/sentences stated in nM), 53.5 nM on CA II (cells/sentences stated in nM), 18.9 nM at CA IX (cells/sentences stated in nM) and 69.8 nM on CA XII (cells/sentences stated in nM).

In the case of `Cc1nnc(NS(=O)(=O)c2ccc(NC(=O)c3cc4cc(Br)ccc4oc3=O)cc2)s1` [13c, 6-Bromo-N-(4-(N-(5-methyl-1,3,4-thiadiazol-2-yl)sulfamoyl)phenyl)-2-oxo-2H-chromene-3-carboxamide], the Ki on CA I (μM unless stated), on CA II (μM unless stated), on CA IX (μM unless stated) and on CA XII (μM unless stated) was over 100000 nM each time.

`NS(=O)(=O)c1cccc(NC(=O)c2cc3cc(F)ccc3oc2=O)c1` [16i, 6-Fluoro-2-oxo-N-(3-sulfamoylphenyl)-2H-chromene-3-carboxamide]: the Ki on CA I (cells/sentences stated in nM) is 225 nM; on CA II (cells/sentences stated in nM), 75.2 nM; on CA IX (cells/sentences stated in nM), 15.2 nM; on CA XII (cells/sentences stated in nM), 49.5 nM.

In the case of `NS(=O)(=O)c1ccc(NC(=O)c2cc3cc(Cl)ccc3oc2=O)cc1` [9b, 6-Chloro-2-oxo-N-(4-sulfamoylphenyl)-2H-chromene-3-carboxamide], the Ki at CA I (cells/sentences stated in nM) was 818 nM; at CA II (cells/sentences stated in nM) it was 64 nM and 63.5 nM; at CA IX (cells/sentences stated in nM), 52.3 nM; at CA XII (cells/sentences stated in nM) it was 28.4 nM.

For the molecule `COc1ccc(NS(=O)(=O)c2ccc(NC(=O)c3cc4cc(Cl)cc(Cl)c4oc3=O)cc2)nn1` [11d, 6,8-Dichloro-N-(4-(N-(6-methoxypyridazin-3-yl)sulfamoyl)phenyl)-2-oxo-2H-chromene-3-carboxamide], the Ki on CA I (μM unless stated), at CA II (μM unless stated), on CA IX (μM unless stated) and on CA XII (μM unless stated) was over 100000 nM throughout.

With `COc1ccc2cc(C(=O)Nc3ccc(S(N)(=O)=O)cc3)c(=O)oc2c1` [9h, 7-Methoxy-2-oxo-N-(4-sulfamoylphenyl)-2H-chromene-3-carboxamide], the Ki at CA IX (cells/sentences stated in nM) was 31.8 nM.

Turning to `CC(=O)NS(=O)(=O)c1ccc(NC(=O)c2cc3ccccc3oc2=O)cc1` [15e, N-(4-(N-acetylsulfamoyl)phenyl)-2-oxo-2H-chromene-3-carboxamide], the Ki on CA I (μM unless stated) was over 100000 nM; at CA II (μM unless stated) it was 10300 nM; at CA XII (μM unless stated) it was 6300 nM.

Regarding `NS(=O)(=O)c1ccc(NC(=O)c2cc3cc(Br)ccc3oc2=O)cc1` [9c, 6-Bromo-2-oxo-N-(4-sulfamoylphenyl)-2H-chromene-3-carboxamide], the Ki turned out to be 1420 nM on CA I (cells/sentences stated in nM), 85.4 nM on CA II (cells/sentences stated in nM), 67.6 nM at CA IX (cells/sentences stated in nM) and 16.2 nM at CA XII (cells/sentences stated in nM).

`COc1ccc2oc(=O)c(C(=O)Nc3cc(C(F)(F)F)c(S(N)(=O)=O)cc3S(N)(=O)=O)cc2c1` [18f, N-(2,4-disulfamoyl-5-(trifluoromethyl)phenyl)-6-methoxy-2-oxo-2H-chromene-3-carboxamide]: the viability (commonly a read-out of living cells in per cent, often relative to untreated cells) at 72 h, 100 µM in series [1] stood at 97%. The general cytotoxic effect entry with HEK293 cells is given as “no general cytotoxic effect”.

In the case of `COc1ccc(NS(=O)(=O)c2ccc(NC(=O)c3cc4cc(Cl)ccc4oc3=O)cc2)nn1` [11b, 6-Chloro-N-(4-(N-(6-methoxypyridazin-3-yl)sulfamoyl)phenyl)-2-oxo-2H-chromene-3-carboxamide], the Ki on CA I (μM unless stated), on CA II (μM unless stated), on CA IX (μM unless stated) and on CA XII (μM unless stated) was over 100000 nM in each case.

Take `COc1ccc2oc(=O)c(C(=O)Nc3cccc(S(N)(=O)=O)c3)cc2c1` [16f, 6-Methoxy-2-oxo-N-(3-sulfamoylphenyl)-2H-chromene-3-carboxamide]: the Ki was 774 nM at CA I (cells/sentences stated in nM); 212 nM at CA II (cells/sentences stated in nM); 5 nM at CA IX (cells/sentences stated in nM); 52 nM and 52.1 nM on CA XII (cells/sentences stated in nM).

Consider `CCOC(=O)c1cc2ccc(OCC(=O)Nc3ccc(S(=O)(=O)Nc4ncnc(OC)c4OC)cc3)cc2oc1=O` [5b, Ethyl 7-(2-((4-(N-(5,6-dimethoxypyrimidin-4-yl)sulfamoyl)phenyl)amino)-2-oxoethoxy)-2-oxo-2H-chromene-3-carboxylate], for which the Ki on CA I (μM unless stated), on CA II (μM unless stated), at CA IX (μM unless stated) and on CA XII (μM unless stated) was over 100000 nM throughout.

For the molecule `COc1cc(NS(=O)(=O)c2ccc(NC(=O)c3cc4cc(Br)ccc4oc3=O)cc2)nc(OC)n1` [14c, 6-Bromo-N-(4-(N-(2,6-dimethoxypyrimidin-4-yl)sulfamoyl)phenyl) −2-oxo-2H-chromene −3-carboxamide], the inhibitory constant (Ki) on CA I (μM unless stated), at CA II (μM unless stated), at CA IX (μM unless stated) and on CA XII (μM unless stated) was over 100000 nM each time.

Consider `NS(=O)(=O)c1cccc(NC(=O)c2cc3cc(Br)ccc3oc2=O)c1` [16c, 6-Bromo-2-oxo-N-(3-sulfamoylphenyl)-2H-chromene-3-carboxamide], for which the Ki at CA I (cells/sentences stated in nM) was determined as 1960 nM; at CA II (cells/sentences stated in nM), 76.3 nM; on CA IX (cells/sentences stated in nM), 14.4 nM; at CA XII (cells/sentences stated in nM), 54.2 nM.

In the case of `COc1cc(NS(=O)(=O)c2ccc(NC(=O)c3cc4ccccc4oc3=O)cc2)nc(OC)n1` [14e, N-(4-(N-(2,6-dimethoxypyrimidin-4-yl)sulfamoyl)phenyl)-2-oxo-2H-chromene-3-carboxamide], the Ki at CA I (μM unless stated), at CA II (μM unless stated), at CA IX (μM unless stated) and on CA XII (μM unless stated) was over 100000 nM in each case.

Take `CC(=O)NS(=O)(=O)c1ccc(NC(=O)c2cc3cc(Br)ccc3oc2=O)cc1` [15c, N-(4-(N-acetylsulfamoyl)phenyl)-6-bromo-2-oxo-2H-chromene-3-carboxamide]: the inhibition constant (Ki) at CA I (μM unless stated) was over 100000 nM; at CA II (μM unless stated), 46800 nM; on CA IX (μM unless stated), 910 nM; on CA XII (μM unless stated) it was 10600 nM.
